Legend:
HIV-1 LAI [1] = assay: microbe, parasite or virus in culture; conditions: Human immunodeficiency virus 1, MT2, 120 h
Method: (§1) Virus and cell lines. The T-cell lines, MT-2 and PM-1 were obtained through the AIDS Research and Reference Reagent Program, NIAID, and were contributed by Dr. D. Richman and Dr. R. Gallo, respectively. Both cell lines were cultured in RPMI 1640 medium supplemented with 10% fetal bovine serum, 2 mM L-glutamine and sub-cultured twice a week. The LAI strain of HIV-1 was obtained from the Fred Hutchinson Cancer Research Center, and the Bal strain was from NIH. Both virus stocks were amplified and titered in MT-2 cells (LAI) and PM-1 cells (Bal) using a virus infectivity assay.
(§2) Drug Susceptibility and Cytotoxicity Assays. For drug susceptibility assays, MT-2 cells were infected with HIV-1 LAI (or PM-1 cells with HIV-1 Bal) at an MOI of 0.005, and seeded into 96-well microtiter plates ([…] cells/ml) containing serial dilutions of test compounds. […] Each drug ratio consisted of an array of 3-fold serial dilutions, and was performed in quadruplicate. The plates were incubated at 37° C./5% CO2. The MT-2 cells infected with HIV-1 LAI were incubated for 5 days. On day-five post-infection, 20 μl from each well was harvested and quantitated by a reverse transcriptase (RT) assay, or in samples involving non-nucleoside RT inhibitors, an MTS assay. The PM-1 cells infected with HIV-1 Bal and used for studying the combinations with CCR5 inhibitors were incubated for six days. On day-six post-infection, 20 μl from each well was harvested, 20- and 50-fold diluted and quantitated by p24 assay. Cytotoxicity assays were performed using uninfected cells, exposed to the same drug combinations, and incubated for six days. Cell viability was determined by an MTS assay. The CC50 values were calculated by using the exponential form of the median effect equation as mentioned below for calculation of EC50.
(§3) In this equation, Fa stands for “fraction affected,” and represents the fraction of the viral load that has been inactivated. […] ED50 is drug concentration that is expected to reduce the amount of virus by 50%, and m is a parameter that reflects the slope of the concentration-response curve.
In carrying out the combination experiments below, the EC50 for Compound 1 and each comparator compound was determined during the course of each study, and used in the subsequent data analysis.

HIV-1 LAI [2] = assay: Two-drug combination antiviral assay with Compound 1 (combination indices, Chou and Rideout); assay type: cell-based; conditions: combination with Compound 1; for Combination Indices at 50% HIV Inhibition (Confidence Interval) / Combination Indices at 75% HIV Inhibition (Confidence Interval) / Combination Indices at 90% HIV Inhibition (Confidence Interval): 95% CI in parenthesis; for Overall Result of two-drug combination: all ratios and inhibition levels
Method: as §1, §2
Analysis of Drug Combination Effects. For determination of CI values, drugs were diluted in a fixed ratio and multiple ratios were analyzed. The drug serial dilutions spanned a range of concentrations near the EC50 value of each compound, so that equivalent antiviral activities could be compared. Concentration-response curves were estimated for each individual drug and every combination using the median-effect equation. The equation was fit using a nonlinear regression routine (Proc Nlin) in PC SAS version 8.01 (SAS Institute Inc., SAS Version 8.01, Cary, NC: SAS Institute Inc., 1990).
as §3
To assess antiviral effects of different drug combination treatments, combination indices (CIs) were calculated according to Chou and Rideout. The combination index was computed as CI=[D]1/[Dm]1+[D]2/[Dm]2
In this equation [Dm]1 and [Dm]2 are the concentrations of drugs that would individually produce a specific level of effect, while [D]1 and [D]2 are the concentrations of drugs in combination that would produce the same level of effect.
Theoretically, additivity is implied if the CI is equal to one, synergy if the CI is less than one, and antagonism if the CI is greater than one. […] At best, we can construct a range that contains the likely values for the CI, given the noise in the data. In this report, these ranges are reported in parentheses next to each point estimate of the CI. […] If the range fell entirely above 1.0, we would infer antagonistic behavior. If the range were to include 1.0, we would infer additivity.

[3] = EC50 ratio 1:1 (Compound 1 to comparator)
[4] = EC50 ratio 1:2.5 (Compound 1 to comparator)
[5] = EC50 ratio 2.5:1 (Compound 1 to comparator)

| SMILES | EC50 (HIV-1 LAI [1]) [nM] | Combination Indices at 50% HIV Inhibition (Confidence Interval) (HIV-1 LAI [2]; [3]) | Combination Indices at 75% HIV Inhibition (Confidence Interval) (HIV-1 LAI [2]; [3]) | Combination Indices at 90% HIV Inhibition (Confidence Interval) (HIV-1 LAI [2]; [3]) | Combination Indices at 50% HIV Inhibition (Confidence Interval) (HIV-1 LAI [2]; [4]) | Combination Indices at 75% HIV Inhibition (Confidence Interval) (HIV-1 LAI [2]; [4]) | Combination Indices at 90% HIV Inhibition (Confidence Interval) (HIV-1 LAI [2]; [4]) | Combination Indices at 50% HIV Inhibition (Confidence Interval) (HIV-1 LAI [2]; [5]) | Combination Indices at 75% HIV Inhibition (Confidence Interval) (HIV-1 LAI [2]; [5]) | Combination Indices at 90% HIV Inhibition (Confidence Interval) (HIV-1 LAI [2]; [5]) | Overall Result of two-drug combination (HIV-1 LAI [2]) | Overall Result of two-drug combination (HIV-1 LAI [2]; listed as delavirdine) | Overall Result of two-drug combination (HIV-1 LAI [2]; listed as efavirenz) |
| --- | --- | --- | --- | --- | --- | --- | --- | --- | --- | --- | --- | --- | --- |
| Nc1nc(NC2CC2)c2ncn([C@H]3C=C[C@@H](CO)C3)c2n1 [Abacavir] | 528 | 0.18 (0.13, 0.23) | 0.47 (0.30, 0.64) | 1.23 (0.52, 1.94) | 0.34 (0.27, 0.41) | 0.64 (0.45, 0.83) | 1.22 (0.65, 1.79) | 0.23 (0.19, 0.28) | 0.42 (0.30, 0.53) | 0.75 (0.42, 1.07) | Additive- | – | – |
| CC(C)CN(C[C@@H](O)[C@H](Cc1ccccc1)NC(=O)O[C@H]1CCOC1)S(=O)(=O)c1ccc(N)cc1 [Amprenavir] | 35 | 0.47 (0.33, 0.62) | 0.76 (0.44, 1.09) | 1.37 (6.46, 2.28) | 0.63 (0.45, 0.81) | 0.72 (0.44, 1.01) | 0.99 (0.38, 1.60) | 0.20 (0.12, 0.28) | 0.60 (0.28, 0.92) | 1.87 (0.24, 3.50) | Additive- | – | – |
| COC(=O)N[C@H](C(=O)N[C@@H](Cc1ccccc1)[C@@H](O)CN(Cc1ccc(-c2ccccn2)cc1)NC(=O)[C@@H](NC(=O)OC)C(C)(C)C)C(C)(C)C [Atazanavir] | 0.5 | 0.76 (0.64, 0.89) | 0.89 (0.69, 1.10) | 1.07 (0.68, 1.46) | 0.28 (0.25, 0.31) | 0.38 (0.33, 0.44) | 0.54 (0.42, 0.66) | 0.08 (0.07, 0.09) | 0.14 (0.12, 0.17) | 0.25 (0.18, 0.33) | Additive- | – | – |
| O=C(C(=O)N1CCN(C(=O)c2ccccc2)CC1)c1c[nH]c2c(-n3ccnn3)ncc(F)c12 [Compound 1, 1-Benzoyl-4-[2-[4-fluoro-7-(1H-1,2,3-triazol-1-yl)-1H-pyrrolo[2,3-c]pyridin-3-yl]-1,2-dioxoethyl]-piperazine] | 0.1 to 0.3 | – | – | – | – | – | – | – | – | – | synergistic or additive-synergistic | – | – |
| CC(C)Nc1cccnc1N1CCN(C(=O)c2cc3cc(NS(C)(=O)=O)ccc3[nH]2)CC1 [Delavirdine] | 99 | 0.79 (0.55, 1.03) | 0.59 (0.35, 0.84) | 0.45 (0.16, 0.73) | 0.99 (0.72, 1.26) | 0.90 (0.56, 1.23) | 0.81 (0.34, 1.29) | 0.56 (0.28, 0.84) | 0.51 (0.16, 0.86) | 0.45 (0.00, 0.95) | Additive- | additive to synergistic | – |
| O=c1[nH]cnc2c1ncn2[C@H]1CC[C@@H](CO)O1 [Didanosine] | 644 | 0.91 (0.74, 1.09) | 0.88 (0.65, 1.11) | 0.88 (0.52, 1.24) | 0.22 (0.19, 0.25) | 0.18 (0.14, 0.22) | 0.16 (0.10, 0.21) | 1.02 (0.83, 1.22) | 0.96 (0.70, 1.21) | 0.91 (0.53, 1.29) | Additive- | – | – |
| O=C1Nc2ccc(Cl)cc2[C@@](C#CC2CC2)(C(F)(F)F)O1 [Efavirenz] | 0.6 | 0.93 (0.74, 1.12) | 0.70 (0.51, 0.90) | 0.57 (0.32, 0.82) | 0.71 (0.58, 0.85) | 0.85 (0.62, 1.08) | 1.10 (0.64, 1.56) | 0.82 (0.62, 1.02) | 0.83 (0.55, 1.12) | 0.89 (0.41, 1.36) | Additive- | – | additive to synergistic |
| Cc1cn([C@H]2C[C@H](N=[N+]=[N-])[C@@H](CO)O2)c(=O)[nH]c1=O [Zidovudine] | – | 0.30 (0.17, 0.42) | 0.48 (0.20, 0.76) | 0.78 (0.05, 1.51) | 0.20 (0.16, 0.25) | 0.30 (0.21, 0.40) | 0.45 (0.22, 0.68) | 0.04 (0.03, 0.04) | 0.04 (0.03, 0.05) | 0.04 (0.03, 0.05) | Synergistic | – | – |

Reference: US20050215544A1, “Methods of treating HIV infection” (priority 2004, published 2005)
